This passage reports inhibition and Ki results from paper PMC9863004, “Development of [^124/125I]IAZA as a New Proteinopathy Imaging Agent for Alzheimer’s Disease” (Molecules, 2023).

The inhibition is the percentage by which the read-out fell short of the control. Lower therefore signals little suppression. What is called Ki is a dissociation constant, usually derived from enzyme kinetics or from competition with a known ligand.

Bounds are passed on as bounds.

Experiment [1] deals with T1, Aβ amyloid plaques (amyloid β) (Homo sapiens, UniProt P05067).
T1 construct: gene APP; aggregated Aβ plaques in postmortem human AD brain slices
In words: displacement of […]IAZA at […], autoradiography in human AD brain slices.

Experiment [2] concerns the target T1, Aβ amyloid plaques (amyloid β). Kind of experiment: autoradiographic radioligand competition with […]IBETA in human AD brain slices; direct [[…]I]IAZA binding.

T1 sequence (P05067 18-770): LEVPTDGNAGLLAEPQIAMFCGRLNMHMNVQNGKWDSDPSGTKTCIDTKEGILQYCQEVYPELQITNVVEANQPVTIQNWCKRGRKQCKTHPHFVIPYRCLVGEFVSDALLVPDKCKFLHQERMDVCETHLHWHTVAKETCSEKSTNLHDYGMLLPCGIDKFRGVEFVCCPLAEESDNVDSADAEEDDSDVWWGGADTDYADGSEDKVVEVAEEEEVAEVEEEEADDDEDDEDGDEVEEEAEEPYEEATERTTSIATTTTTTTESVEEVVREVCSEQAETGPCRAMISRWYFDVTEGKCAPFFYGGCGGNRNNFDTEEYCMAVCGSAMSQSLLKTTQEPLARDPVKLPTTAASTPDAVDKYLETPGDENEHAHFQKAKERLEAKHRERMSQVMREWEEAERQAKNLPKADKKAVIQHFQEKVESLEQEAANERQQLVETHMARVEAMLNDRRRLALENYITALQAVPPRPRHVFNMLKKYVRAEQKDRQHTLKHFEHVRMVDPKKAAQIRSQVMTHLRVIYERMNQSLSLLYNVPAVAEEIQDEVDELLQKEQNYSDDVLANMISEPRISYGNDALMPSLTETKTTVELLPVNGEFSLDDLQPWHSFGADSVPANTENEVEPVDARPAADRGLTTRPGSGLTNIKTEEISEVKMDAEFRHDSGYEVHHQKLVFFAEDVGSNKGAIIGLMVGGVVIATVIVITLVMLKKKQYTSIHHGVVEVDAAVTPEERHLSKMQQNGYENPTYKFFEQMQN

`CN(C)c1ccc(-c2cc3cc(Br)ccc3o2)cn1` [BrBETA] returned an inhibition at 10 µM in experiment [1] greater than 95%.

As to `CN(C)c1ccc(N=Nc2ccc(I)cc2)cc1` [compound 5, 4′-iodo-4-dimethylaminoazobenzene], the Ki in experiment [2] was 10.9 nM.
